From patent US12673954B2 (BRISTOL-MYERS SQUIBB COMPANY, priority 2021, dated 2026) come the findings set out here.

Experiment [1] has as its system NF-κB pathway, THP1-Dual™ cells. The experiment can be described thus: STING reporter assay in THP1-Dual cells, NF-κB pathway (SEAP, QUANTI-Blue). It counts as cell-based, human. The settings on record: THP1-Dual cells, 10% human plasma, 20 hours, SEAP, 100% activation = 100 μM cGAMP, read-out: NFkB (EC50 μM). The procedure, abridged: (§1)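 Activation normalised between DMSO-only baseline and 100 μM cGAMP maximum, after 20 h compound exposure (starting at 100 μM final) at 37° C, 5% CO2. Supernatant SEAP (QUANTI-Blue, OD620) reports NF-κB; secreted luciferase (QUANTI-Luc, RLU at 5 min) reports IRF.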
(In general: A reporter such as luciferase makes a cellular process visible.)

Experiment [2] relates to IRF pathway, THP1-Dual™ cells. The experiment can be described thus: STING reporter assay in THP1-Dual cells, IRF pathway (Lucia luciferase, QUANTI-Luc). Conditions: THP1-Dual cells, 10% human plasma, 20 hours, Lucia luciferase, 100% activation = 100 μM cGAMP, read-out: IRF (EC50 μM). It counts as cell-based, human. In short, it runs like this: as §1

Where two headings read alike, the source gives them in different places.

What is called EC50 is the concentration giving half of the maximal effect. Take `O=C(OCC(F)(F)F)c1cccc2cc(CN3Cc4ccncc4C3=O)oc12` [EXAMPLE 204, 2,2,2-Trifluoroethyl 2-((3-oxo-1,3-dihydro-2H-pyrrolo[3,4-c]pyridin-2-yl)methyl)benzofuran-7-carboxylate]: the 50% effective concentration (EC50) stood at 41 µM in experiment [1] (Homo sapiens, THP1-Dual, 20 h) and 32 µM in experiment [2] (Homo sapiens, THP1-Dual, 20 h).

For the compound `Cc1cc(C(=O)OCC(F)(F)F)c2oc(CN3CCc4ccncc4C3=O)cc2c1` [EXAMPLE 376, 2,2,2-Trifluoroethyl 5-methyl-2-((1-oxo-3,4-dihydro-2,7-naphthyridin-2(1H)-yl)methyl)benzofuran-7-carboxylate], the EC50 was 16 µM in experiment [1] (Homo sapiens, THP1-Dual, 20 h) and 19 µM in experiment [2] (Homo sapiens, THP1-Dual, 20 h).

In the case of `N#Cc1cc(C(=O)OCC(F)(F)F)c2oc(CNC(=O)c3cnn4cccnc34)cc2c1` [EXAMPLE 282, 2,2,2-Trifluoroethyl 5-cyano-2-((pyrazolo[1,5-a]pyrimidine-3-carboxamido)methyl)benzofuran-7-carboxylate], the EC50 came to 12 µM in experiment [1] (Homo sapiens, THP1-Dual, 20 h) and 12 µM in experiment [2] (Homo sapiens, THP1-Dual, 20 h).

With `O=C(SCC(F)(F)F)c1cc(F)cc2cc(CNC(=O)c3cnn4cccnc34)oc12` [EXAMPLE 388, S-(2,2,2-Trifluoroethyl) 5-fluoro-2-((pyrazolo[1,5-a]pyrimidine-3-carboxamido)methyl)benzofuran-7-carbothioate], the concentration giving a half-maximal response (EC50) was 1.4 µM in experiment [1] (Homo sapiens, THP1-Dual, 20 h) and 1.5 µM in experiment [2] (Homo sapiens, THP1-Dual, 20 h).

Regarding `COC(=O)c1cc(C)cc2cc(CNC(=O)c3cncnc3OC)oc12` [Example 94, Methyl 2-((4-methoxypyrimidine-5-carboxamido)methyl)-5-methylbenzofuran-7-carboxylate], the EC50 worked out at 2.1 µM in experiment [1] (Homo sapiens, THP1-Dual, 20 h) and 1.8 µM in experiment [2] (Homo sapiens, THP1-Dual, 20 h).

In the case of `CC(OC(=O)c1cc(Cl)cc2cc(CN3CCc4ccncc4C3=O)oc12)C(F)(F)F` (stereo not drawn) [EXAMPLE 337, 1,1,1-Trifluoropropan-2-yl 5-chloro-2-((1-oxo-3,4-dihydro-2,7-naphthyridin-2(1H)-yl)methyl)benzofuran-7-carboxylate], the EC50 in experiment [1] is 13 µM; in experiment [2], 9.8 µM.

For the compound `O=C(NCc1cc2cc(Cl)cc(C(=O)OCC(F)(F)F)c2o1)c1cncc2[nH]cnc12` [EXAMPLE 264, 2,2,2-Trifluoroethyl 2-((3H-imidazo[4,5-c]pyridine-7-carboxamido)methyl)-5-chlorobenzofuran-7-carboxylate], the half-maximal effective concentration (EC50) in experiment [1] (Homo sapiens, THP1-Dual, 20 h) was 1.7 µM; in experiment [2] (Homo sapiens, THP1-Dual, 20 h), 1.7 µM.

For the compound `COC(=O)c1cc(C)cc2cc(CNC(=O)c3cncc4cccnc34)oc12` [Example 92, methyl 2-((1,6-naphthyridine-8-carboxamido)methyl)-5-methylbenzofuran-7-carboxylate], the EC50 in experiment [1] (Homo sapiens, THP1-Dual, 20 h) worked out at 0.81 µM; in experiment [2] (Homo sapiens, THP1-Dual, 20 h), 0.8 µM.

Consider `COC(=O)c1cc(Cl)cc2cc(CNC(=O)c3cc(N)ccn3)oc12` [Example 53, Methyl 2-((4-aminopicolinamido)methyl)-5-chlorobenzofuran-7-carboxylate], for which the concentration giving a half-maximal response (EC50) in experiment [1] (Homo sapiens, THP1-Dual, 20 h) worked out at 27 µM; in experiment [2] (Homo sapiens, THP1-Dual, 20 h), 22 µM.

In the case of `COC(=O)c1cc(F)cc2cc(C(C)NC(=O)c3cnn4cccnc34)oc12` (stereo not drawn) [EXAMPLE 45, Methyl-5-fluoro-2-(1-(pyrazolo[1,5-a]pyrimidine-3-carboxamido)ethyl)benzofuran-7-carboxylate], the EC50 stood at 0.99 µM in experiment [1] (Homo sapiens, THP1-Dual, 20 h) and 0.98 µM in experiment [2] (Homo sapiens, THP1-Dual, 20 h).

On to `O=C(OC(C(F)(F)F)C(F)(F)F)c1cc(F)cc2cc(CNC(=O)c3cnn4cccnc34)oc12` [EXAMPLE 238, 1,1,1,3,3,3-Hexafluoropropan-2-yl 5-fluoro-2-((pyrazolo[1,5-a]pyrimidine-3-carboxamido)methyl)benzofuran-7-carboxylate], for which the EC50 in experiment [1] (Homo sapiens, THP1-Dual, 20 h) came out at 1.7 µM; in experiment [2] (Homo sapiens, THP1-Dual, 20 h) it was 1.6 µM.

Take `CC(NC(=O)c1cnn2cccnc12)c1cc2cc(F)cc(C(=O)O[C@H](C)C(F)(F)F)c2o1` (stereo partly drawn) [EXAMPLE 326, (R)-1,1,1-Trifluoropropan-2-yl 5-fluoro-2-(1-(pyrazolo[1,5-a]pyrimidine-3-carboxamido)ethyl)benzofuran-7-carboxylate]: the values for the EC50 in experiment [1] and in experiment [2] were greater than 100 µM and 74 µM, respectively.
